Measured values taken from ChEMBL document CHEMBL6121063, “Identification of a Potent and Selective CDK9 Degrader as a Targeted Therapeutic Option for the Treatment of Small-Cell Lung Cancer” (J Med Chem, 2025).

Tests used:
[1] = biological target: T1, Protein cereblon/Cyclin-dependent kinase 9 (Homo sapiens, UniProt P50750+Q96SW2); assay: PROTAC activity at CRBN/CDK9 in human NCI-H446 cells assessed as induction of CDK9 degradation at 10 nM by Western blot analysis relative to control; assay type: cell-based
T1 sequence (P50750 whole entry, looked up): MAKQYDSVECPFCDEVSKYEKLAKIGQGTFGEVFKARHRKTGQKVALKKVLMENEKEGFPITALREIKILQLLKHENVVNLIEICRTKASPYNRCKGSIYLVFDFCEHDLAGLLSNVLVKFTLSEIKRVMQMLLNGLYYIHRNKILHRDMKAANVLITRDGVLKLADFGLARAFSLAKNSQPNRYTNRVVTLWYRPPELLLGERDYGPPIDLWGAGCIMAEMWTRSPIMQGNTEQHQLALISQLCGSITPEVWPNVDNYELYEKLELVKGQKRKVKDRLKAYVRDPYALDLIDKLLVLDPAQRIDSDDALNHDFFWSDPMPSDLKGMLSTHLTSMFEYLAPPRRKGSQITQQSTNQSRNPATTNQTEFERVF
T1 sequence (Q96SW2 whole entry, looked up): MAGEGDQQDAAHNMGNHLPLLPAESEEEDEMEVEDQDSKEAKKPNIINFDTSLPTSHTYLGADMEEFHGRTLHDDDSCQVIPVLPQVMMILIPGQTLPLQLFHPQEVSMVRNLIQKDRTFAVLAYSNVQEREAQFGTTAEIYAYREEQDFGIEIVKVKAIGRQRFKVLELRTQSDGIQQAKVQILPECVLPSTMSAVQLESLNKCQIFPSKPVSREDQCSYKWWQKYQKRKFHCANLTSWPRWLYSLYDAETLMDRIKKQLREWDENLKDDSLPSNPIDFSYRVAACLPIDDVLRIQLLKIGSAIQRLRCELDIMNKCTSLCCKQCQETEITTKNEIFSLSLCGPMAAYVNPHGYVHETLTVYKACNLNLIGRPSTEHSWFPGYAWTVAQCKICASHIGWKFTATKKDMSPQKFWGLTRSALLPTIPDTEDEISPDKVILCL

[2] = biological target: T1, Protein cereblon/Cyclin-dependent kinase 9; assay: PROTAC activity at CRBN/CDK9 in human NCI-H69 cells assessed as induction of CDK9 degradation at 10 nM by Western blot analysis relative to control; assay type: cell-based
[3] = tested on: NCI-H446; assay: Antiproliferative activity against human NCI-H446 cells assessed as inhibition of cell growth incubated for 72 hrs by CCK8 assay; assay type: functional, cell-based; settings: NCI-H446, 72 h
[4] = tested on: NCI-H69; assay: Antiproliferative activity against human NCI-H69 cells assessed as inhibition of cell growth incubated for 72 hrs by CCK8 assay; assay type: functional, cell-based; settings: NCI-H69, 72 h
[5] = Metabolic stability in mouse liver microsomes assessed as intrinsic clearance; assay type: ADME, Microsome; settings: microsomes
[6] = Metabolic stability in human liver microsomes assessed as intrinsic clearance; assay type: ADME, Microsome; settings: microsomes
[7] = Metabolic stability in mouse liver microsomes assessed as half-life; assay type: ADME, Microsome; settings: microsomes
[8] = Metabolic stability in human liver microsomes assessed as half-life; assay type: ADME, Microsome; settings: microsomes
[9] = Kinetic solubility of compound in FeSSIF buffer incubated for 2 hrs by LC-MS/MS analysis; assay type: physicochemical; settings: read-out: Kinetic_solubility

SMILES | Activity [1] [%] | Activity [2] [%] | IC50 [3] [µM] | IC50 [4] [µM] | CLH [5] [µL/min/mg] | CLH [6] [µL/min/mg] | t1/2 [7] [min] | t1/2 [8] [min] | solubility kinetic at 2 h [9] [µM]
O=C1CCC(N2C(=O)c3ccc(N4CCN(C(=O)CN5CCC(NC(=O)c6n[nH]cc6NC(=O)c6c(Cl)cccc6Cl)CC5)CC4)cc3C2=O)C(=O)N1 (stereo not given) | 51.9 | 44.2 | 0.0179 | 0.0538 |  |  |  |  | 
CN1C(=O)CCC(Nc2cccc(N3CCN(CC4CCN(CC(=O)N5CCC(NC(=O)c6n[nH]cc6NC(=O)c6c(Cl)cccc6Cl)CC5)CC4)CC3)c2)C1=O (stereo not given) | 3.15 | 12.3 | 0.592 | 0.501 |  |  |  |  | 
O=C1CCC(N2C(=O)c3cccc(NCCCCCCN4CCC(NC(=O)c5n[nH]cc5NC(=O)c5c(Cl)cccc5Cl)CC4)c3C2=O)C(=O)N1 (stereo not given) | 39.4 | 34 | 0.0542 | 0.0953 |  |  |  |  | 
O=C1CCC(N2C(=O)c3ccc(N4CCN(CC(=O)N5CCC(NC(=O)c6n[nH]cc6NC(=O)c6c(Cl)cccc6Cl)CC5)CC4)cc3C2=O)C(=O)N1 (stereo not given) | 30.9 | 45.5 | 0.349 | 0.726 |  |  |  |  | 
O=C1CCC(N2C(=O)c3ccc(N4CCC(OC(=O)CN5CCC(NC(=O)c6n[nH]cc6NC(=O)c6c(Cl)cccc6Cl)CC5)CC4)cc3C2=O)C(=O)N1 (stereo not given) | 18.6 | 25.2 | > 1 | 0.268 |  |  |  |  | 
O=C1CCC(N2C(=O)c3cccc(NCCCCCC(=O)N4CCC(NC(=O)c5n[nH]cc5NC(=O)c5c(Cl)cccc5Cl)CC4)c3C2=O)C(=O)N1 (stereo not given) | 27.1 | 17.1 | > 1 | > 1 |  |  |  |  | 
Cc1ncc2n1-c1ccc(Cl)cc1C(c1ccccc1F)=NC2 [MIDAZOLAM] |  |  |  |  | 1270 | 1200 | 2.72 | 2.9 | 
O=C1CCC(N2C(=O)c3ccc(N4CCN(C(=O)CCC(=O)N5CCC(NC(=O)c6n[nH]cc6NC(=O)c6c(Cl)cccc6Cl)CC5)CC4)cc3C2=O)C(=O)N1 (stereo not given) | 31.8 | 39.1 | 0.0317 | 0.0425 |  |  |  |  | 
O=C1CCC(N2C(=O)c3ccc(N4CC5CN(CC(=O)N6CCC(NC(=O)c7n[nH]cc7NC(=O)c7c(Cl)cccc7Cl)CC6)CC5C4)cc3C2=O)C(=O)N1 (stereo not given) | 38.9 | 49.4 | 0.157 | 0.142 |  |  |  |  | 
Cl.O=C1CCC(Nc2cccc(N3CCN(CC4CCN(CC(=O)N5CCC(NC(=O)c6n[nH]cc6NC(=O)c6c(Cl)cccc6Cl)CC5)CC4)CC3)c2)C(=O)N1 (stereo not given) |  |  |  |  |  |  |  |  | 290
O=C1CCC(N2C(=O)c3cccc(NCCCCCCCN4CCC(NC(=O)c5n[nH]cc5NC(=O)c5c(Cl)cccc5Cl)CC4)c3C2=O)C(=O)N1 (stereo not given) | 21.3 | 10.6 | 0.0629 | 0.179 |  |  |  |  | 
O=C1CCC(N2C(=O)c3ccc(N4CCN(C(=O)CCCC(=O)N5CCC(NC(=O)c6n[nH]cc6NC(=O)c6c(Cl)cccc6Cl)CC5)CC4)cc3C2=O)C(=O)N1 (stereo not given) | 3.22 | 3.8 | 0.352 | 0.261 |  |  |  |  | 
